In data set [1] the test system is PBMC. Description: PBMC proliferation to mitogen PHA. It counts as cell-based. Particulars: Homo sapiens, effect INHIB (Inhibition), PHA 1.0 μg/ml. As for the experimental part:
(§1) Unless otherwise described the medium for human cell culture assays is defined as follows: RPMI-1640 is supplemented with 100 U/ml penicillin, 100 μg/ml streptomycin, 2 mM L-glutamine; 1 mM Na pyruvate; 1% MEM non-essential amino acids and 25 mM HEPES; (all from GIBCO, Gaithersburg, Md.). Complete medium is defined as medium supplemented with 5% pooled, heat-inactivated (56° C., 30 minutes) human AB serum (Pel-freeze, Brown Deer, Wis.).
Human Peripheral Blood Mononuclear Cell (PBMC) Isolation:
Venous blood is obtained from healthy volunteers and mixed with an equal volume of sterile isotonic saline/10 mM HEPES and placed into 50 ml conical polypropylene tubes in 30 ml aliquots. Each aliquot of diluted blood is underlaid with 20-25 ml of sterile Lymphocyte Separation Medium (LSM; Organon-Technika, Durham, N.C.). The tubes are centrifuged at 400 g for 40 minutes at room temperature. […] Cell concentrations for each donor are determined by counting in an haematology analyser (Serono-Baker). […]
PBMC are adjusted to 4×10^6 /ml in complete medium. […] The contents of the wells are harvested onto glass fibre filters using a multiple automated sample harvester (Tomtec), and the incorporated ^3 H-thymidine determined by liquid scintillation spectrophotometry and represented an cpm (counts per minute) incorporated per well.

The test system of data set [2] is PBMC. Description: Two-way mixed lymphocyte reaction (MLR). It counts as cell-based. The following applies: Homo sapiens, effect INHIB (Inhibition). As for the experimental part:
as §1
Two-Way Mixed Lymphocyte Reaction (MLR):
PBMC are prepared as described for the mitogen assays, but resuspended to 2×10^6 cells/ml in complete medium. Fifty μl of cell suspension from two different individuals is then added to each well of a 96-well flat bottom tissue culture plate. An additional 100 μl of complete medium, dexamethasone or test compounds are then added to each well, the plates are incubated for 6 days at 37° C., and then pulsed with ^3 H-thymidine and harvested as previously described.

In the next data set the test system is GM-CSF. Kind of data set: Monocyte release of GM-CSF. In kind it is cell-based. Particulars: Homo sapiens, effect INHIB (Inhibition), LPS 100 ng/ml.
For the next data set, the system named is IL1β. Description: Monocyte release of IL-1β. It counts as cell-based, human. Particulars: LPS 100 ng/ml. The arrangement: key: NE: No effect; NT: Not tested; INHIB: Inhibition; STIM: Stimulation; TC: Tolerated Concentration.
For a further data set, the system named is IL1ra. Kind of data set: Monocyte release of IL-1 receptor antagonist. In kind it is cell-based, human. The arrangement: key: NE: No effect; NT: Not tested; INHIB: Inhibition; STIM: Stimulation; TC: Tolerated Concentration.
The next data set relates to IL6. Description: Monocyte release of IL-6. It counts as cell-based, human. Particulars: LPS 100 ng/ml. On the set-up: key: NE: No effect; NT: Not tested; INHIB: Inhibition; STIM: Stimulation; TC: Tolerated Concentration.
The subject of the next data set is IL8. Description: Monocyte release of IL-8. It counts as cell-based, human. Particulars: LPS 100 ng/ml. On the set-up: key: NE: No effect; NT: Not tested; INHIB: Inhibition; STIM: Stimulation; TC: Tolerated Concentration.
A further data set deals with TNFα. Description: Monocyte release of TNF-α. In kind it is cell-based. Particulars: Homo sapiens, effect INHIB (Inhibition), LPS 100 ng/ml.
The test system of another data set is TISSUE FACTOR. Kind of data set: Monocyte procoagulant activity (Tissue Factor). It counts as cell-based. The following applies: Homo sapiens, effect INHIB (Inhibition). On the procedure:
Purified monocytes prepared as described above are suspended at 4×10^6 cells/ml in complete medium. To each well of a 48-well flat bottomed tissue culture plate is added 0.125 ml of cell suspension. Test materials (diluted in complete medium at 2× the desired final concentration) are added in 250 μl volumes to each well. Control wells receive 250 μl of complete medium or 250 μl of IL-4 (diluted to×2 the desired final concentration of 50 ng/ml). All samples are tested at four concentrations in the presence or absence of 100 ng/ml LPS (125 μl of 4× desired final concentration added) and incubated at 37° C. in humidified 5% CO2, for 16 hours. At this time, culture supernatants are aspirated off, and the unattached cells and cell debris are removed by a 2 minute spin in a microcentrifuge at 10,000 g.l The release of cytokines and growth factors is determined in the cell-free supernatants using ELISA capture assays. In this way, testing for IL-1β, TNF-α, IL-1 receptor antagonist, IL-6, IL-8, GM-CSF and PDGF is conducted.
Monocyte Procoagulant Activity (Tissue Factor):
The adhered monocytes remaining on the 48-well tissue culture plates after removal of the supernatants above, are used to measure levels of Tissue Factor production. The cells are solubilized overnight at 4° C. in 10% Triton-×100 in PBS, diluted to 1% Triton-×100 with PBS then assayed by ELISA for Tissue Factor.

For a further data set, the system named is LTB4. Kind of data set: Monocyte release of LTB4. In kind it is cell-based. The following applies: Homo sapiens, effect INHIB (Inhibition), zymosan A. On the procedure: (§2) Monocyte Release of PGE2, LTB4, and PAF:
(§3) Monocytes isolated as described above, were washed and resuspended in RPMl containing 5 mg/ml HSA at 2×10^6 cells/ml and added to wells of a 48-well plates. The cells were allowed to adhere for 2 hours then washed in HBSS-BSA-HEPES buffer. Test materials were added at four concentrations (175 μl) for 60 minutes; then the monocytes were stimulated by addition of […] zymosan A (175 μl of 2× desired final concentration added). Supernatant medium was collected from the wells after 90 minutes incubation and stored at -20° C. until assayed. Supernatants were assayed for PGE2, LTB4 or PAF using specific scintillation proximity assays (SPA).

Another data set relates to PAF. Kind of data set: Monocyte release of PAF. In kind it is cell-based, human. On the set-up: key: NE: No effect; NT: Not tested; INHIB: Inhibition; STIM: Stimulation; TC: Tolerated Concentration. Particulars: zymosan A. On the procedure:
as §2, §3

The next data set has as its system SUPEROXIDE
Kind of data set: Monocyte superoxide anion (O2) release. In kind it is cell-based, human. The arrangement: key: NE: No effect; NT: Not tested; INHIB: Inhibition; STIM: Stimulation; TC: Tolerated Concentration. Particulars: zymosan A. On the procedure:
Monocyte Superoxide Anion (O2) Release:
Monocytes are prepared as described above and resuspended to 5×10^6 /ml in HBSS containing 10 Mm HEPES, 2 g/l glucose, 0.1% BSA, Ph 7.2. To each well of a 96-well flat bottom, tissue culture plate is added 100 μl of cell suspension and 100 μl of buffer or test materials. Samples are run in quadruplicate. The plate is incubated for 60 minutes at 37° C. followed by the addition of 50 μl of buffer containing cytochrome C (5 mg/ml; type VI, horse heart, Sigma) and bovine liver catalase (1500 U/ml; Sigma) in the presence of zymosan A (ZYM); 750 μg/ml; Sigma). The plate is incubated an additional 120 minutes at 37° C. during which the absorbance at 550 nm is monitored using a microplate reader incorporating dedicated software for kinetic analysis (Molecular Devices; Menlo Park, Calif.).

In the next data set the test system is Monocytes. Description: Inhibition of monocyte chemotaxis. Particulars: chemoattractant FMLP. In kind it is cell-based, human. On the set-up: key: NE: No effect; NT: Not tested; INHIB: Inhibition; STIM: Stimulation; TC: Tolerated Concentration. As for the experimental part:
Inhibition of Monocyte Chemotaxis:
Monocytes are prepared as previously described, and resuspended at 5×10^6 cells/ml in HBSS, 0.1% BSA (HBSS-BSA). Fluorophore labeling of the cells is carried out by adding calcein-AM to the above cells at a final concentration of 2 μM. Following a 30 minute incubation at 37° C. in humidified 5% CO2, the labeled monocytes are washed twice and incubated in a range of dilutions of the test materials for 60 minutes at 37° C. in humidified 5% CO2. The pre-treated, calcein-AM loaded cells are then added in triplicate to the wells of the top compartment of a NeuroProbe (Cabin, John, M.D.) 96-well chemotaxis chamber (2×10^5 cells/well) and permitted to migrate through a 10 μm thick bonded polycarbonate membrane (5 μm porosity; NeuroProbe Inc; Cabin, John, M.D.) towards the wells of the lower compartment containing the chemoattractant (FMLP) at 5×10^-9 M. After a 90 minute incubation at 37° C. in a humidified chamber, the wells of the upper chambers are aspirated, the monocyte-associated membrane removed, non-migrating cells wiped off and the filters permitted to air dry to 15 minutes. The number of cells migrating through the membranes are quantified by measuring the fluorescent intensity of the migrating cells in a fluorescent microplate reader (CytoFluor 2300, Millipore Corp., Bedford, Mass.)

The next data set in a line: MTS. Particulars: printed in the EC50 column; effect TC; read-out: TC Tolerated Concentration (MTS). In kind it is cell-based.
A short description of the next data set: LDH. The following applies: printed in the EC50 column; effect TC; read-out: TC Tolerated Concentration (LDH). It counts as cell-based.
The subject of another data set is HIV-1. Particulars: 12 weeks, p<0.05; cited from earlier work.
Data set [3] deals with latent HIV-1 in a monocytoid (U1) cell line. The following applies: cited from earlier work.
The next data set has as its system TNF-α. Particulars: cited from earlier work.
Data set [4] concerns HIV-1 in peripheral blood mononuclear cells. Particulars: advanced HIV-1 infection and AIDS; cited from earlier work.

Take `Nc1nc(Cl)c2ncn(CCCCB(O)O)c2n1` [2-Amino-6-chloro-9-(4-dihydroxyborylbutyl)purine]: the EC50 amounted to 100 µM in the data set on PBMC [1]; 50 µM with PBMC [2]; 6.8 µM with GM-CSF; 0.57 µM in the data set with TNFα; 2.1 µM in the data set on TISSUE FACTOR; 90.5 µM in the data set on LTB4. Besides, the “EFFECT (IL1β)” value with IL1β is “NE”. The “EFFECT (IL1ra)” value in the data set with IL1ra is given as “NE”. Besides, the “EFFECT (IL6)” value with IL6 is on record as “NE”. In the data set on IL8, the “EFFECT (IL8)” value is “NE”. In the data set on PAF, the “EFFECT (PAF)” value was “NE”. Besides, in the data set with SUPEROXIDE, the “EFFECT (SUPEROXIDE)” value is reported as “NE”. Further, in the data set on Monocytes, the “EFFECT (CHEMOTAXIS)” value is listed as “NE”. Besides, the MNTC in the data set “MTS” and in “LDH” was 100 µM throughout.
As for `CC(=O)CCCCn1c(=O)c2c(ncn2C)n(C)c1=O` [Pentoxifylline], the “mean HIV-1 viral load (levels with either agent alone)” value in the data set with HIV-1 was 8- to 9 fold.
For `O=C1CCC(N2C(=O)c3ccccc3C2=O)C(=O)N1` (centres unmarked) [Thalidomide], in [3], the “activation of latent HIV-1” value is reported as “suppress the activation of latent HIV-1”. In addition, in the data set on TNF-α, the “agonist-induced TNF-α protein and mRNA production” value is recorded as “reduction”. For the same molecule, the “inhibition of activation of virus in PBMC, patients” value in [4] is reported as 16 out of 17.
Turning to `Cc1cn([C@H]2C[C@H](N=[N+]=[N-])[C@@H](CO)O2)c(=O)[nH]c1=O` [zidovudine], in the data set on HIV-1, the “mean HIV-1 viral load (levels with either agent alone)” value is given as 8- to 9 fold.

One may read the EC50 as the concentration that produces a half-maximal response.

The values are drawn from patent US5643893A, “N-substituted-(Dihydroxyboryl)alkyl purine, indole and pyrimidine derivatives, useful as inhibitors of inflammatory cytokines” (Macronex, Inc., priority 1994, dated 1997).
